Experiments:
[1] = system: HCT116 cells; experiment: Cell proliferation assay (CellTiter-Glo), HCT116; assay type: cell-based; details: Homo sapiens, 120 h, HCT-116, 5 days incubation
Method: (§1) SW48 cells were plated at a density of 1,500 cells/well, and LoVo, HCT116, and SW620 cells were plated at a density of 800 cells/well in a 96-well cell culture plate, and cultured in a 37°C incubator overnight. The test compounds, which were gradient-diluted with DMSO, were added, and after incubation for 5 days, cell viability was detected using a CellTiter-Glo kit. The CellTiter-Glo reagent was equilibrated to room temperature, and an appropriate amount was added to the cell plate, followed by shaking at room temperature for 12 min. The luminescence signal was detected using a microplate reader.
(§2) The luminescence signal values of the DMSO-treated wells and cell-free wells were used as negative and positive controls, respectively, to calculate the inhibition rate of compound on cell proliferation. The concentration-inhibition curve was fitted using the "log(inhibitor) vs. normalized response -- Variable slope" equation in GraphPad Prism 8 software to obtain the IC50. [formula]

[2] = system: LoVo; experiment: Cell proliferation assay (CellTiter-Glo), LoVo; assay type: cell-based; details: Homo sapiens, 120 h, 5 days incubation
Method: as §1, §2

[3] = Pharmacokinetic test in rats; assay type: in vivo; details: rat, SD rats, male, oral gavage, 10 mg/kg, plasma
Method: SD rats were taken as test animals. Example 4, Example 15, and Comparative Example HRO761 were given by gavage. The drug concentrations in rat plasma at different time points were determined by LC-MS/MS to investigate the pharmacokinetic characteristics of Example 4, Example 15, and Comparative Example HRO761 in rats.
• Experimental drugs: Example 4, Example 15, and Comparative Example HRO761; • Animals: SD rats, male, 240-260 g, purchased from Shanghai Jihui Laboratory Animal Care Co.,Ltd.
(§3) An appropriate amount of Example 4, Example 15, and Comparative Example HRO761 was weighed and added to an appropriate amount of dimethyl sulfoxide, solutol, and saline (final solvent: 5% DMSO + 10% solutol + 85% saline). The mixture was vortexed and sonicated to prepare a 1.0 mg/mL dosing solution.
The rats in gavage groups (3 rats per group) of Example 4, Example 15, and Comparative Example HRO761 were administered by oral gavage after overnight fasting (dose: 10 mg/kg, administration volume: 10 mL/kg), and the rats were fed 4 h after administration.
(§4) 0.2 mL of blood was collected from the animals before administration and at 0.083 h, 0.25 h, 0.5 h, 1 h, 2 h, 4 h, 6 h, 8 h, and 24 h after administration, and anticoagulated with sodium heparin. Blood samples were placed on ice after collection, and plasma was separated by centrifugation (centrifugation conditions: 8000 rpm, 5 min). The collected plasma was stored at -80°C before analysis.
The contents of Example 4, Example 15, and Comparative Example HRO761 in rat plasma after oral administration were determined by LC-MS/MS.
(§5) Based on the calculated concentrations of the compounds in plasma at different time points, the pharmacokinetic parameters of Example 4, Example 15, and Comparative Example HRO761 in rats were calculated using winnonlin software. The pharmacokinetic parameters of Example 4, Example 15, and Comparative Example HRO761 of the present disclosure are shown in Table 14.

[4] = Pharmacokinetic test in mice; assay type: in vivo; details: mouse, CD-1 mice, male, oral gavage, 10 mg/kg, plasma
Method: CD-1 mice were taken as test animals. Example 4, Example 22, and Comparative Example HRO761 were given by gavage. The drug concentrations in mouse plasma at different time points were determined by LC-MS/MS to investigate the pharmacokinetic characteristics of the compounds of the present disclosure in mice.
• Experimental drugs: Example 4, Example 22, and Comparative Example HRO761; • Animals: CD-1 mice, male, 24-25 g, purchased from Shanghai Jihui Laboratory Animal Care Co.,Ltd.
as §3, with “4, Example 22, and Comparative” for “4, Example 15, and Comparative”, “weighed and sequentially added to” for “weighed and added to”
Three mice in gavage groups of Example 4, Example 22, and Comparative Example HRO761 were administered by oral gavage after overnight fasting (dose: 10 mg/kg, administration volume: 10 mL/kg), and the mice were fed 4 h after administration.
as §4, with “0.04 mL” for “0.2 mL”
LC-MS/MS was used to determine the content of the test compound in mouse plasma after intragastric administration.
as §5, with “22,” for “15,”, “mice” for “rats”, “13.” for “14.”

[5] = system: SW48; experiment: γH2AX induction assay (HTRF Phospho-H2AX), SW48; assay type: cell-based; details: Homo sapiens, SW-48, incubated for 2-3 days, read-out: γ-H2AX induction SW-48 (EC50 nM)
Method: (§6) SW48, HCT116, and SW620 cells were plated into 96-well cell culture plates at a density of 15,000-25,000 cells/well and cultured overnight in a 37°C incubator. The test compounds, which were gradient-diluted with DMSO, were added and incubated for 2-3 days. The γ-H2AX level was detected using HTRF Phospho-H2AX (SER139) Detection Kits. The 4× Lysis buffer and Detection buffer were equilibrated to room temperature for later use. The 4× Lysis buffer was diluted to 1× Lysis buffer using ddH2O. After the medium was aspirated, 50 µL of 1× Lysis buffer was added to each well and shaken at room temperature for 30 minutes for lysis. 16 µL of lysate was transferred to a 384-well plate, followed by the addition of 4 µL of diluted antibody mixture (Phospho-H2AX d2 antibody and Phospho-H2AX Eu Cryptate antibody were each diluted 20-fold using Detection buffer, and the two antibodies were then mixed uniformly at a 1:1 volume ratio). The mixture was incubated at room temperature for 2-24 h, and fluorescence signals at […] and 615 nm were detected using a microplate reader. Parallel treatment plates were simultaneously set up in the experiment, and cell viability was detected using the CellTiter-Glo kit. The CellTiter-Glo reagent was equilibrated to room temperature, and an appropriate amount was added to the cell plate, followed by shaking at room temperature for 12 min. The luminescence signal was detected using a microplate reader.
(§7) The fluorescence signal values of DMSO-treated wells and positive drug-treated wells were used as negative and positive controls, respectively, to calculate the level of γ-H2AX induced by the compounds. The concentration-induction rate curve was fitted using the "log(agonist) vs. response -- Variable slope (four parameters)" equation in GraphPad Prism 8 software to obtain the EC50. [formula] [formula]

[6] = system: HCT116; experiment: γH2AX induction assay (HTRF Phospho-H2AX), HCT116; assay type: cell-based; details: Homo sapiens, HCT-116, incubated for 2-3 days, read-out: γ-H2AX induction HCT-116 (EC50 nM)
Method: as §6, §7

[7] = system: SW620 cells; experiment: γH2AX induction assay (HTRF Phospho-H2AX), SW620; assay type: cell-based; details: Homo sapiens, SW-620 (MSS), incubated for 2-3 days, read-out: γ-H2AX induction SW-620 (EC50 nM)
Method: as §6, §7

[8] = system: SW48 cells; experiment: Cell proliferation assay (CellTiter-Glo), SW48; assay type: cell-based; details: Homo sapiens, SW48, 120 h, SW-48, 5 days incubation
Method: as §1, §2

[9] = system: SW620 cells; experiment: Cell proliferation assay (CellTiter-Glo), SW620; assay type: cell-based; details: Homo sapiens, 120 h, SW-620 (MSS), 5 days incubation
Method: as §1, §2

For CCc1c(N2CCN(C(=O)c3ncnc(C)c3O)CC2)c(=O)n2nc(C3=CCOCC3)nc2n1CC(=O)Nc1ccc(C(F)(F)F)cc1Cl [HRO761, reference compound], the IC50 [1] was 143 nM, the IC50 [2] was 220 nM and the Cmax [3] was 6960 ng/mL. It also gave an AUC ([3]; read-out: AUC0-i) of 63600 ng·h/mL, a Cmax [4] of 11200 ng/mL and an AUC ([4]; read-out: AUC0-i) of 28300 ng·h/mL. The EC50 [5] was 324 nM, the EC50 [6] was 640 nM and the EC50 [7] was over 10000 nM. The IC50 [8] was 144 nM and the IC50 [9] was over 25000 nM.

From patent publication EP4692088A1, “COMPOUND ACTING AS WRN HELICASE INHIBITOR” (SHANGHAI JEYOU PHARMACEUTICAL CO., LTD., priority 2023, dated 2024)
